From patent publication US20260124191A1, “HISTONE DEACETYLASE INHIBITOR AND USES THEREOF” (NANJING HONGSHUN PHARMACEUTICAL TECHNOLOGY CO., LTD, priority 2023, published 2026)

Legend:
[1] = system: HDAC; experiment: HDAC inhibitory activity assay (FRET); format: biochemical; conditions: for Inhibition rate: test concentration 100 nM, relative to DMSO control; for IC50: HDAC, FRET, read-out: Half-maximal inhibitory concentration (IC50 ± SD)
Procedure: The HDAC inhibitory activity of the synthesized compounds was determined by fluorescence resonance energy transfer (FRET), and then compared with that of the positive control to screen out compounds with better activity. HDAC was obtained by purification or purchased directly.
The method was as follows.
An enzyme was added to reaction wells, a reaction buffer was added to control wells, a sample dissolved in DMSO was added to the reaction wells, and the wells were incubated using a contactless nanoflow sonic pipetting system (Ech-550; nanoflow). A fluorescent substrate was added to each reaction well and then rotated and shaken. The wells were incubated for 1-2 h at 30° C. under a sealed condition. A TMP26-containing chromogenic agent was added to terminate the reaction and produce fluorescence. The fluorescence intensity was detected using En Vision multi-label microplate detector (Perkin Elmer) (excitation light: 490 nm, emitted light: 520 nm). After the stabilization of color development, the endpoint value was read. The percentage (relative to the DMSO control group) inhibition rate was calculated using the software GraphPad Prism 4.

[2] = system: HT29; experiment: In vitro anti-tumor activity, MTT method; format: cell-based; conditions: Homo sapiens, HT-29, 96-hour treatment, read-out: Antiproliferative Activity (IC50 ± SD, μM) HT29
[3] = system: human small cell lung cancer cell line H446; experiment: In vitro anti-tumor activity, MTT method; format: cell-based; conditions: NCI-H446, 96-hour treatment, read-out: Antiproliferative Activity (IC50 ± SD, μM) H446
Procedure: (§1) The inhibitory effects of the compounds against human non-small cell lung cancer cell lines A549, NCI-H1650, human small cell lung cancer cell lines H446, human prostate cancer cells DU145, PC-3, LNCAP, human colon cancer cells lines HCT116, human breast cancer cells MDA-MB-231, and MCF7 tumor cell lines were determined using the MTT method.
(§2) The method was as follows. The cells in the exponential growth phase were collected to count living cells. The concentration of the cell suspension was adjusted using the corresponding medium of each group of cells. The cell suspension was added to the 96-well culture plate at 100 μL per cell, and the plate was placed in a 5% CO2 incubator at 37° C. and incubated for 24 h. Each test compound was dissolved in DMSO to prepare a stock solution with a corresponding concentration. Then, each stock solution was diluted 500-fold with the medium to prepare 4 replicate wells. 100 μL of the corresponding 500-fold solution was added to each well per cell line, with the final DMSO concentration of 0.1%. […] The half-maximal (relative to the DMSO control group) inhibition rate was calculated using the software GraphPad Prism 4.

[4] = system: human non-small cell lung cancer cell line NCI-H1650; experiment: In vitro anti-tumor activity, MTT method; format: cell-based; conditions: 96-hour treatment, read-out: Antiproliferative Activity (IC50 ± SD, μM) H1650
Procedure: as §1, §2

[5] = system: human colon cancer cell line HCT116; experiment: In vitro anti-tumor activity, MTT method; format: cell-based; conditions: HCT-116, 96-hour treatment, read-out: Antiproliferative Activity (IC50 ± SD, μM) HCT116
Procedure: as §1, §2

[6] = system: human breast cancer cells MDA-MB-231; experiment: In vitro anti-tumor activity, MTT method; format: cell-based; conditions: MDA-MB-231, MTT, 96-hour treatment, read-out: Antiproliferative Activity (IC50 ± SD, μM) MDA-MB-231
Procedure: as §1, §2

[7] = system: human non-small cell lung cancer cell line A549; experiment: In vitro anti-tumor activity, MTT method; format: cell-based; conditions: Homo sapiens, A549, 96 h, 96-hour treatment
Procedure: as §1, §2

[8] = system: human prostate cancer cells PC-3; experiment: In vitro anti-tumor activity, MTT method; format: cell-based; conditions: PC-3, MTT, 96-hour treatment
Procedure: as §1, §2

[9] = system: human prostate cancer cells DU145; experiment: In vitro anti-tumor activity, MTT method; format: cell-based; conditions: 96-hour treatment
Procedure: as §1, §2

[10] = system: human breast cancer cells MCF7; experiment: In vitro anti-tumor activity, MTT method; format: cell-based; conditions: MCF-7, MTT, 96-hour treatment
Procedure: as §1, §2

[11] = system: human prostate cancer cells LNCAP; experiment: In vitro anti-tumor activity, MTT method; format: cell-based; conditions: 96-hour treatment, read-out: Antiproliferative Activity (IC50 ± SD, μM) LNCAP
Procedure: as §1, §2

Row | SMILES | Inhibition rate [1] | IC50 [2] [µM] | IC50 [3] [µM] | IC50 [4] [µM] | IC50 [5] [µM] | IC50 [6] [µM] | IC50 [7] [nM] | IC50 ([8]; Homo sapiens, 96 h) [nM] | IC50 ([9]; Homo sapiens, DU-145, 96 h) [nM] | IC50 ([10]; Homo sapiens, MCF7, 96 h) [nM] | IC50 [11] [µM] | IC50 [1] [nM] | Inhibition rate ([1]; 0.1 µM) | IC50 [8] [nM] | IC50 [9] [nM] | IC50 [10] [nM]
1 | O=C(CCCCCCN1C(=O)C/C(=C\c2cccc(Cl)c2)C1=O)NO [Example I-25, (E)-7-(3-(3-chlorobenzal)-2,5-diketopyrrolidinyl)-N-hydroxyheptamide] | 91.2% ± 0.7% | 1.3 ± 0.1 | 0.78 ± 0.04 | 7.3 ± 0.56 | 0.81 ± 0.06 | 2.05 ± 0.2 | 1120 ± 200 | 1700 ± 80 | 380 ± 40 | 1050 ± 240 | 1.95 ± 0.21 | – | – | – | – | –
2 | O=C(CCCCCCN1C(=O)C/C(=C\c2ccccc2)C1=O)NO [Example I-4] | – | 1.76 ± 0.25 | 0.57 ± 0.03 | 6.12 ± 0.88 | 0.75 ± 0.08 | 0.67 ± 0.1 | 1320 ± 170 | 820 ± 70 | 500 ± 70 | 1430 ± 60 | 1.63 ± 0.24 | 12.9 ± 0.1 | – | – | – | –
3 | O=C(CCCCCCN1C(=O)C/C(=C\c2ccccc2Cl)C1=O)NO [Example I-24, (E)-7-(3-(2-chlorobenzal)-2,5-diketopyrrolidinyl)-N-hydroxyheptamide] | – | 1.22 ± 0.1 | 0.77 ± 0.1 | 6.6 ± 0.57 | 0.86 ± 0.08 | 0.99 ± 0.11 | 1330 ± 230 | 1440 ± 100 | 480 ± 60 | 580 ± 30 | 1.51 ± 0.22 | 19.3 ± 0.11 | – | – | – | –
4 | CN(C)c1ccc(/C=C2\CC(=O)N(CCCCCCC(=O)NO)C2=O)cc1 [Example I-16, (E)-7-(3-(4-dimethylaminobenzal)-2,5-diketopyrrolidinyl)-N-hydroxyheptamide] | 93.3% ± 1.0% | – | – | – | – | – | 2240 ± 80 | 1750 ± 120 | 920 ± 30 | 1160 ± 120 | – | – | – | – | – | –
5 | O=C(CCCCCCN1C(=O)C/C(=C\c2ccc(C(F)(F)F)cc2)C1=O)NO [Example I-17, (E)-7-(3-(4-trifluoromethylbenzal)-2,5-diketopyrrolidinyl)-N-hydroxyheptamide] | 76.2% ± 0.7% | – | – | – | – | – | 3370 ± 430 | 1830 ± 50 | 1220 ± 180 | 1680 ± 90 | – | – | – | – | – | –
6 | CC(C)c1ccc(/C=C2\CC(=O)N(CCCCCCC(=O)NO)C2=O)cc1 [Example I-15, (E)-7-(3-(4-isopropylbenzal)-2,5-diketopyrrolidinyl)-N-hydroxyheptamide] | 81.4% ± 0.5% | – | – | – | – | – | 3680 ± 500 | 1820 ± 160 | 1350 ± 270 | 1660 ± 140 | – | – | – | – | – | –
7 | O=C(CCCCCN1C(=O)C/C(=C\c2ccccc2)C1=O)N[C@H]1CCCC[C@@H]1O [Example I-12, 6-(3-((E)-benzal)-2,5-diketopyrrolidinyl)-N-((1S,2S)-2-hydroxycyclohexyl)hexanamide] | 0% | – | – | – | – | – | > 20000 | > 20000 | > 20000 | > 20000 | – | – | – | – | – | –
8 | COc1cc(Br)ccc1/C=C1\CC(=O)N(CCCCCCC(=O)NO)C1=O [Example I-40, (E)-7-(3-(4-bromo-2-methoxybenzal)-2,5-diketopyrrolidinyl)-N-hydroxyheptamide] | – | – | – | – | – | – | 1490 ± 90 | 670 ± 100 | 250 ± 40 | 320 ± 20 | – | 5.5 ± 0.03 | – | – | – | –
9 | COc1ccc(/C=C2\CC(=O)N(CCCCCCC(=O)NO)C2=O)cc1OC [Example I-34, (E)-7-(3-(3,4-dimethoxybenzal)-2,5-diketopyrrolidinyl)-N-hydroxyheptamide] | 85.3% ± 7.2% | – | – | – | – | – | 1230 ± 170 | 880 ± 100 | 450 ± 120 | 820 ± 90 | – | – | – | – | – | –
10 | O=C(CCCCCCN1C(=O)C/C(=C\c2cccc(Br)c2)C1=O)NO [Example I-27, (E)-7-(3-(3-bromobenzal)-2,5-diketopyrrolidinyl)-N-hydroxyheptamide] | 90.9% ± 1.2% | – | – | – | – | – | 2810 ± 100 | 1060 ± 130 | 650 ± 90 | 830 ± 50 | – | – | – | – | – | –
11 | COc1ccccc1/C=C1\CC(=O)N(CCCCCCC(=O)NO)C1=O [Example I-31, (E)-7-(3-(2-methoxybenzal)-2,5-diketopyrrolidinyl)-N-hydroxyheptamide] | – | 1.05 ± 0.1 | 0.65 ± 0.05 | 3.56 ± 0.1 | 0.47 ± 0.01 | 0.31 ± 0.05 | 1390 ± 60 | 820 ± 90 | 160 ± 40 | 350 ± 20 | 0.63 ± 0.12 | 12.6 ± 0.15 | – | – | – | –
12 | CCOc1ccccc1/C=C1\CC(=O)N(CCCCCCC(=O)NO)C1=O [Example I-38, (E)-7-(3-(2-ethoxybenzal)-2,5-diketopyrrolidinyl)-N-hydroxyheptamide] | – | – | – | – | – | – | 1780 ± 200 | 890 ± 50 | 340 ± 40 | 510 ± 70 | – | 16.7 ± 0.21 | – | – | – | –
13 | Cc1ccc(/C=C2\CC(=O)N(CCCCCCC(=O)NO)C2=O)cc1 [Example I-18, (E)-7-(3-(4-methylbenzal)-2,5-diketopyrrolidinyl)-N-hydroxyheptamide] | – | – | – | – | – | – | 1880 ± 170 | – | – | – | – | – | 85.9% ± 0.9% | 2200 ± 80 | 310 ± 50 | 460 ± 40
14 | O=C(CCCCCCN1C(=O)C/C(=C\c2cccc(I)c2)C1=O)NO [Example I-29, (E)-7-(3-(3-iodobenzal)-2,5-diketopyrrolidinyl)-N-hydroxyheptamide] | 91.3% ± 0.7% | – | – | – | – | – | 5090 ± 230 | 1470 ± 150 | 910 ± 70 | 1380 ± 120 | – | – | – | – | – | –
15 | O=C(CCCCCCN1C(=O)C/C(=C\c2ccccc2)C1=O)N[C@H]1CCCC[C@@H]1O [Example I-13, 7-(3-((E)-benzal)-2,5-diketopyrrolidinyl)-N-((1S,2S)-2-hydroxycyclohexyl)heptamide] | 0% | – | – | – | – | – | > 20000 | > 20000 | > 20000 | > 20000 | – | – | – | – | – | –
